“Also recorded” adds a separate entry of the source. Where two headings read alike, the source gives them in different places.
Experiments:
human LPA2 receptor [1] = molecular target: T1, human LPA2 receptor (Homo sapiens, UniProt Q9HBW0); assay: Dynamic mass redistribution (DMR) assay in CHOLPA2 cells; settings: for DMR response: CHOLPA2 cells; for DMR effect per se / Agonism Emax / Agonism pEC50 / Shift of the concentration–response curve to LPA: CHOLPA2, DMR; for DMR effect per se: concentration–response up to highest concentration tested; for Agonism Emax / Agonism pEC50: negative DMR signal, peak, up to 10 µM (compound 35 up to 1 µM), °inactive at 10 μM; for Shift of the concentration–response curve to LPA: antagonism protocol, 1 µM
T1 sequence (Q9HBW0 whole entry): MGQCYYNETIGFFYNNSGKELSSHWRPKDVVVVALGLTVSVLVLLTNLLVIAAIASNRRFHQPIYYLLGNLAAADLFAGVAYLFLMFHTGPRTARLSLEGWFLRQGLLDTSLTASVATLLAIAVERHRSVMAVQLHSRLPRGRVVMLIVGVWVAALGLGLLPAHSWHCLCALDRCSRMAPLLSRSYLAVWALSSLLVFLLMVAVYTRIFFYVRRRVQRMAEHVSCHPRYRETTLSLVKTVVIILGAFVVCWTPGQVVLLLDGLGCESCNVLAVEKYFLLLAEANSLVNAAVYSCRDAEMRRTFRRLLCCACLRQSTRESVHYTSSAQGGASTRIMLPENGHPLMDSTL
Protocol: Confluent cells were sub-cultured using trypsin/EDTA and used for experiments. Cells were seeded at a density of 20,000 cells/well in 30 µL into fibronectin-coated EnspireTM-LC 384-well plates and cultured for 20 h to form a confluent monolayer. On the day of the experiment, the cells were manually washed twice and maintained with assay buffer (HBSS with 20 mM HEPES, 0.01% BSA) for 90 min before DMR experiments. DMR was monitored in real time with a temporal resolution of 44 s throughout the assay. Experiments were performed at 37°C using an EnSight Multimode Plate Reader (PerkinElmer). The agonism protocol was as follows: before addition of the ligand, the DMR signal was measured for 5 min, and the average of the signals recorded during this period was set as the baseline (pm = 0). Compounds are added manually in a volume of 10 µL, and the triggered DMR signals were recorded for 60 min. […] Responses were described in the form of picometer shift over time (seconds) following the subtraction of values from vehicle-treated wells. Maximum picometer (pm) modification (peak) and area under the curve (AUC) were used to determine the agonist response.
All data were analyzed using GraphPad Prism 9.4 (La Jolla, CA, United States). Concentration–response curves were fitted using the four-parameter log-logistic equation. Data are expressed in the form mean ± s.e.m. across n experiments performed in duplicate. […] In practice, equiactive concentrations of the agonist in the absence ([A]) and presence ([A’]) of a non-competitive antagonist ([B]) were compared in a double reciprocal plot describing a straight line, and pKB was derived from the equation: pKB = log[(slope—1)/[B]]. […] Maximal effect data were analyzed using the Student’s t-test or a one-way ANOVA followed by Dunnett’s post-hoc test.

CHO wild-type cells [2] = assay: DMR assay in CHO wild-type cells (control); type: cell-based; settings: for DMR response: CHO cells
Protocol: Confluent cells were sub-cultured using trypsin/EDTA and used for experiments. Cells were seeded at a density of 20,000 cells/well in 30 µL into fibronectin-coated EnspireTM-LC 384-well plates and cultured for 20 h to form a confluent monolayer. On the day of the experiment, the cells were manually washed twice and maintained with assay buffer (HBSS with 20 mM HEPES, 0.01% BSA) for 90 min before DMR experiments. DMR was monitored in real time with a temporal resolution of 44 s throughout the assay. Experiments were performed at 37°C using an EnSight Multimode Plate Reader (PerkinElmer). The agonism protocol was as follows: before addition of the ligand, the DMR signal was measured for 5 min, and the average of the signals recorded during this period was set as the baseline (pm = 0). Compounds are added manually in a volume of 10 µL, and the triggered DMR signals were recorded for 60 min. The antagonism protocol was as follows: antagonists were added manually 25 min before reading the 5 min baseline. […] Responses were described in the form of picometer shift over time (seconds) following the subtraction of values from vehicle-treated wells. Maximum picometer (pm) modification (peak) and area under the curve (AUC) were used to determine the agonist response.

human LPA1 receptor [3] = molecular target: T2, human LPA1 receptor (Homo sapiens, UniProt Q92633); assay: Dynamic mass redistribution (DMR) assay in CHOLPA1 cells; settings: for DMR response: CHOLPA1 cells; for EC50: Agonism pEC50, CHOLPA1, DMR; for Shift of the concentration–response curve to LPA: antagonism protocol; for Shift of the concentration–response curve to LPA / Effect on LPA maximal effect: 1 µM; for Effect on LPA maximal effect: tested as antagonist; for Agonism Emax: negative DMR signal
T2 sequence (Q92633 whole entry): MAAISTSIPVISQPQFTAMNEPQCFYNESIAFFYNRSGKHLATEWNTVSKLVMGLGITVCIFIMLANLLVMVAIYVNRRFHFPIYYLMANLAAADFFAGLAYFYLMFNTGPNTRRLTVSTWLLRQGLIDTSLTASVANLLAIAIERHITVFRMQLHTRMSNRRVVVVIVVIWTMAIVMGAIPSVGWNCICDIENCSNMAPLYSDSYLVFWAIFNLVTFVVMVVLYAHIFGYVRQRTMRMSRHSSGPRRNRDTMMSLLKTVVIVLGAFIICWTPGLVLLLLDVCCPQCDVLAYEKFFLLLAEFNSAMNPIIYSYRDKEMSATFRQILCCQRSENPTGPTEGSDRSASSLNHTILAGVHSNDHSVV
Protocol: All data were analyzed using GraphPad Prism 9.4 (La Jolla, CA, United States). Concentration–response curves were fitted using the four-parameter log-logistic equation. Data are expressed in the form mean ± s.e.m. across n experiments performed in duplicate. Agonist potency is expressed in the form pEC50, which is the negative logarithm to base 10 of the agonist molar concentration that produces 50% of the maximal possible effect of that agonist. […] In practice, equiactive concentrations of the agonist in the absence ([A]) and presence ([A’]) of a non-competitive antagonist ([B]) were compared in a double reciprocal plot describing a straight line, and pKB was derived from the equation: pKB = log[(slope—1)/[B]]. […] Maximal effect data were analyzed using the Student’s t-test or a one-way ANOVA followed by Dunnett’s post-hoc test.

human LPA2 receptor [4] = molecular target: T1, human LPA2 receptor; assay: Calcium mobilization assay in CHOLPA2 cells; settings: CHOLPA2, calcium mobilization; for Effect per se / Shift of the concentration–response curve to LPA: 1 µM; for Effect per se: data not shown; for Agonism Emax / Agonism pEC50: #inactive at 1 μM; for Shift of the concentration–response curve to LPA: antagonism protocol
LPA1 = system: LPA1; design: method as in Cheng et al., 2021; settings: LPA1 antagonist, calcium mobilization; ref Cheng et al., 2021; cited from earlier work
[5] = design: method as in Palmer et al., 2018; settings: patients with idiopathic pulmonary fibrosis, ref Palmer et al., 2018, cited from earlier work
human LPA1 receptor [6] = molecular target: T2, human LPA1 receptor; assay: Calcium mobilization assay in CHOLPA1 cells; settings: for Effect per se: 1 µM, data not shown; for Shift of the concentration–response curve to LPA: antagonism protocol (compound 35, compound 20 at 1 µM); for Effect on LPA maximal effect: tested as antagonist
LPA2 receptor = molecular target: LPA2 receptor; design: method as in Beck et al., 2008; settings: ref Beck et al., 2008, cited from earlier work
CHO wild-type cells [7] = assay: Calcium mobilization assay in CHO wild-type cells (control); type: cell-based; settings: micromolar concentration
Protocol: Cells were seeded at a density of 50,000 cells/well in 100 μL into black, clear-bottom 96-well plates. The following day, cells were incubated with medium supplemented with 2.5 mM probenecid, 3 μM of the calcium-sensitive fluorescent dye Fluo-4 AM, and 0.01% pluronic acid for 30 min at 37°C. After the incubation period, the loading solution was aspirated, and 100 μL of HBSS supplemented with 20 mM HEPES, 2.5 mM probenecid, and 500 μM Brilliant Black was added. Serial dilutions of compounds were carried out in HBSS/HEPES (20 mM) buffer containing 0.01% BSA. Cell culture and drug plates were placed into a fluorimetric imaging plate reader (FlexStation II, Molecular Devices, Sunnyvale, CA), and fluorescence changes were measured. Online additions were carried out with a volume of 50 μL/well. […] To facilitate drug diffusion into the wells, the experiments were performed at 37°C, and three cycles of mixing (25 μL from each well moved up and down three times) were performed immediately after injection of antagonists into the wells. Agonist effects were expressed in the form of maximum percentage change over baseline fluorescence. Baseline fluorescence was measured in wells treated with vehicle.

LPA1 receptor = settings: 2017, cited from earlier work
[8] = system: human lung fibroblast proliferation; design: method as in Qian et al., 2012; settings: inhibiting LPA-induced human lung fibroblast proliferation; ref Qian et al., 2012; cited from earlier work
[9] = design: method as in Allanore et al., 2018; settings: phase II, diffuse cutaneous systemic sclerosis; ref Allanore et al., 2018; cited from earlier work
[10] = negative DMR signal (inverse agonism), peak, up to 10 µM (compound 35 up to 1 µM), °inactive at 10 μM
[11] = CHOLPA1, calcium mobilization, *inactive at 0.1 µM
[12] = CHOLPA1, DMR, peak, up to 10 µM (compound 35 up to 1 µM), °inactive at 10 μM
[13] = CHOLPA1, calcium mobilization, #inactive at 1 μM

Agonism Emax (human LPA2 receptor [1]) | Agonism pEC50 (human LPA2 receptor [1]) | DMR response (human LPA2 receptor [1]; compound 10 μM, mean ± s.e.m.) [pm] | Effect per se (human LPA2 receptor [4]) | Agonism Emax (human LPA2 receptor [4]) | Agonism pEC50 (human LPA2 receptor [4]) | EC50 (human LPA1 receptor [3]; [10]) [nM] | DMR response (human LPA1 receptor [3]; compound 10 μM, mean ± s.e.m.) [pm] | Effect per se (human LPA1 receptor [6]; CHOLPA1, calcium mobilization) | Agonism Emax (human LPA1 receptor [3]; [12]) | SMILES | DMR effect per se (human LPA2 receptor [1]) | Shift of the concentration–response curve to LPA (human LPA2 receptor [4]) | DMR response (CHO wild-type cells [2]; compound 10 μM, mean ± s.e.m.) [pm] | Shift of the concentration–response curve to LPA (human LPA1 receptor [3]; CHOLPA1, DMR) | Shift of the concentration–response curve to LPA (human LPA1 receptor [6]; CHOLPA1, calcium mobilization) | also measured
– | – | – | – | – | – | – | – | – | – | Nc1ncnc2c1ncn2[C@@H]1O[C@H](COP(=O)(O)OP(=O)(O)OP(=O)(O)O)[C@@H](O)[C@H]1O [ATP] | – | – | – | – | – | DMR response (human LPA2 receptor [1]; ATP 100 μM): 96 ± 13 pm; DMR response (CHO wild-type cells [2]; ATP 100 μM): 156 ± 11 pm; DMR response (human LPA1 receptor [3]; ATP 100 μM): 84 ± 6 pm
Crc incomplete | Crc incomplete | −79 ± 18 | did not produce any effect per se | Inactive^# | Inactive^# | 87.1 | −134 ± 28 | did not produce any effect per se | – | Cc1noc(-c2ccc(-c3ccc(C4(C(=O)O)CC4)cc3)cc2)c1NC(=O)O[C@H](C)c1ccccc1 [BMS-986020] | inactive per se, or slightly active only at the higher concentration tested | shifted the concentration–response curve to LPA to the right | −39 ± 17 | shifted the concentration–response curve to LPA to the right | shifted the concentration–response curve to LPA to the right | pKB (LPA1): ~8; Rate of decline in forced vital capacity ([5]; compared with placebo): slower rate of decline in forced vital capacity; Cholecystitis ([5]; study interrupted): three cases of cholecystitis; Hepatic enzymes ([5]; study interrupted): elevation in hepatic enzymes; Kb (human LPA1 receptor [3]): 79.4 nM; Effect on LPA maximal effect (human LPA1 receptor [3]; CHOLPA1, DMR): produced a reduction in LPA maximal effect; also recorded: slight but statistically significant reduction in LPA maximal effect; Agonism Emax (human LPA1 receptor [6]; [11]): Inactive*; Agonism pEC50 (human LPA1 receptor [6]; [11]): Inactive*; Effect on LPA maximal effect (human LPA1 receptor [6]; CHOLPA1, calcium mobilization): produced a reduction in LPA maximal effect
Crc incomplete | Crc incomplete | – | did not produce any effect per se | Inactive^# | Inactive^# | – | – | did not produce any effect per se | Crc incomplete | Cc1csc2c(N[C@@H](C)CN3CCN(S(=O)(=O)c4ccc(Cl)c(Cl)c4)CC3)ncnc12 [Compound 35] | inactive per se, or slightly active only at the higher concentration tested | shifted the concentration–response curve to LPA to the right | – | did not shift the concentration–response curve to LPA to the right | did not shift the concentration–response curve to LPA to the right | Shift of the concentration–response curve to LPA (human LPA2 receptor [1]): shifted the concentration–response curve to LPA to the right; DMR response (human LPA2 receptor [1]; compound 35 1 μM): −88 ± 6 pm; DMR response (CHO wild-type cells [2]; compound 35 1 μM): −27 ± 13 pm; pIC50 (LPA2 receptor; inhibition of stimulant activity of LPA on Ca2+ mobilization, LPA2-transfected cells): 7.77; Selectivity for LPA2 vs. LPA1 and LPA3 receptors (LPA2 receptor): highly selective; Agonism pEC50 (human LPA1 receptor [3]; CHOLPA1, DMR, negative DMR signal (inverse agonism), peak, up to 10 µM (compound 35 up to 1 µM), °inactive at 10 μM): Crc incomplete; DMR effect per se (human LPA1 receptor [3]; CHOLPA1, DMR, up to highest concentration tested (10 μM; compound 35 1 µM)): only a slight negative signal at the highest concentration tested; DMR response (human LPA1 receptor [3]; compound 35 1 μM): −101 ± 10 pm; Kb (human LPA1 receptor [6]; Antagonism pKB/pA2, CHOLPA1, calcium mobilization, LPA curve in absence and presence of 1 µM compound): > 1000 nM; Agonism Emax (human LPA1 receptor [6]; [13]): Inactive^#; Agonism pEC50 (human LPA1 receptor [6]; [13]): Inactive^#
– | – | −55 ± 19 | inactive | – | – | 309 | −78 ± 18 | inactive | −68 ± 13 pm | Cc1noc(-c2ccc(O[C@H]3CC[C@@H](C(=O)O)CC3)cc2)c1NC(=O)O[C@H](C)c1ccccc1Cl [Compound CHI] | inactive | did not shift the concentration–response curve to LPA | −4 ± 22 | active as an LPA1 antagonist only in calcium mobilization experiments | – | Shift of the concentration–response curve to LPA (human LPA2 receptor [1]): did not shift the concentration–response curve to LPA; DMR effect per se (CHO wild-type cells [2]; CHO wild-type cells, 10 µM): inactive; Kb (human LPA1 receptor [6]; pKB, CHOLPA1, calcium mobilization, Gaddum method, 1 µM antagonist): 57.5 nM
– | – | – | – | – | – | – | – | – | – | CCCCCCCC/C=C\CCCCCCCC(=O)OC[C@@H](O)COP(=O)([O-])O.[Na+] [LPA, Oleoyl-L-α-lysophosphatidic acid sodium salt] | – | – | – | – | – | Effect in CHO wild-type cells (CHO wild-type cells [7]): elicited some stimulant effects; Effect in CHO wild-type cells (CHO wild-type cells [2]; DMR, micromolar concentration): elicited some stimulant effects; pEC50 (stimulant effect of LPA) (human LPA1 receptor [3]; CHOLPA1, DMR, peak, LPA 0.01 nM–10 µM): 7.16 (6.89–7.43); pEC50 (stimulant effect of LPA) (human LPA1 receptor [6]; CHOLPA1, calcium mobilization, LPA 0.01 nM–10 µM): 7.25 (7.19–7.31); pEC50 (LPA1 receptor; native LPA1 receptor, ref Sattikar et al.): ~7.5; pEC50 (LPA1 receptor; recombinant LPA1 receptor, ref Swaney et al., 2011, Shimizu and Nakayama): ~7.5
Inactive° | Inactive° | 3 ± 21 | did not produce any effect per se | Inactive^# | Inactive^# | 49 | −66 ± 16 | did not produce any effect per se | −80 ± 16 pm | Cc1nnn(-c2ccc(-c3ccc(C4(C(=O)O)CC4)cc3)cc2)c1NC(=O)O[C@H](C)c1ccccc1 [RO 6842262] | inactive per se, or slightly active only at the higher concentration tested | – | −36 ± 12 | shifted the concentration–response curve to LPA to the right | shifted the concentration–response curve to LPA to the right | Potency relative to KI 16425 [8]: 10 fold; Effect on LPA maximal effect (human LPA1 receptor [3]; CHOLPA1, DMR): without changing the maximal effect; Kb (human LPA1 receptor [6]; Antagonism pKB (pKB/pA2), CHOLPA1, calcium mobilization, Gaddum method, LPA curve in absence and presence of 0.1 µM antagonist): 2.04 nM; Agonism Emax (human LPA1 receptor [6]; [11]): Inactive*; Agonism pEC50 (human LPA1 receptor [6]; [11]): Inactive*; Effect on LPA maximal effect (human LPA1 receptor [6]; CHOLPA1, calcium mobilization): reduced the LPA maximal effect in a concentration-dependent manner; LPA1 selectivity (vs. LPA2) (human LPA1 receptor [6]; assay not specified): > 30 fold
– | – | – | – | – | – | – | – | – | – | COc1ccc(C(=O)NC2(C(=O)O)Cc3ccccc3C2)cc1OCCc1cccc(C)c1 [SAR-100842] | – | – | – | – | – | Improvement in the modified Rodnan skin thickness score [9]: not statistically significant; Tolerability [9]: well-tolerated

From paper PMC10682101, “In vitro pharmacological characterization of standard and new lysophosphatidic acid receptor antagonists using dynamic mass redistribution assay” (Frontiers in Pharmacology, 2023)
